Publication PMC11166204, “Mapping the global interactome of the ARF family reveals spatial organization in cellular signaling pathways” (Journal of Cell Science, 2024)
Like-named read-outs stand apart in the source and are kept apart here.

Experiments:
Assay type in all cases: binding
KRAS [1] = biological target: T1, KRAS (Homo sapiens, UniProt P01116); assay: co-purified nucleotide by ion-pair reversed-phase HPLC
T1 construct: GFP-tagged, purified from HEK293T cells

ARL10 [2] = biological target: T2, ARL10 (Homo sapiens, UniProt Q8N8L6); assay: as above
T2 construct: GFP-tagged, purified from HEK293T cells
T2 sequence (Q8N8L6 1-244): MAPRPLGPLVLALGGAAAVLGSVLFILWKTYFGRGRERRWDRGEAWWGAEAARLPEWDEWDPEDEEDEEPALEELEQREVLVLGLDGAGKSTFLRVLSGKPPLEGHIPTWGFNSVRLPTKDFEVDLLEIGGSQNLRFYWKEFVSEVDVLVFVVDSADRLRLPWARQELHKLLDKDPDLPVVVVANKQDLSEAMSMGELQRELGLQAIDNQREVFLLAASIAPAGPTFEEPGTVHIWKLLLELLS

ARL11 = biological target: T3, ARL11 (Homo sapiens, UniProt Q969Q4); assay: ITC; 1H-15N HSQC NMR
T3 construct: amino acids 1–196 (GST tag cleaved with thrombin)

ARF1 = biological target: T4, ARF1 (Homo sapiens, UniProt P84077); assay: co-purified nucleotide by ion-pair reversed-phase HPLC
T4 construct: GFP-tagged, purified from HEK293T cells

KRAS [3] = biological target: T5, KRAS (Homo sapiens, UniProt P01116, Q61L); assay: as above
T5 construct: GFP-tagged, purified from HEK293T cells

ARL10 [4] = biological target: T2, ARL10; assay: as above; remark: listed apart in the source

T3 sequence (Q969Q4 whole entry, the tested form may be a part): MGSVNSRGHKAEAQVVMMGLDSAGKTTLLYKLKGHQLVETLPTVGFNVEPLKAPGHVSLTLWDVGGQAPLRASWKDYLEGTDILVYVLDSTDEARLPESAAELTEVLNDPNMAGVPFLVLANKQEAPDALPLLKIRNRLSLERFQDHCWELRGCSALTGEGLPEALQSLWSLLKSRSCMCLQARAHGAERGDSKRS
T4 sequence (P84077 2-181): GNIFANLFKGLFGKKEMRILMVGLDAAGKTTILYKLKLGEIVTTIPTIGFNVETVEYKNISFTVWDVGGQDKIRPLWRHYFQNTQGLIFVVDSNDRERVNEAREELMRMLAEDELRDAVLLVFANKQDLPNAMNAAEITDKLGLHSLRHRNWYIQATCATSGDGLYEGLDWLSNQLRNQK

## Nc1nc2c(ncn2[C@@H]2O[C@H](COP(=O)(O)OP(=O)(O)O)[C@@H](O)[C@H]2O)c(=O)[nH]1 [GDP]
KRAS [1]
  co-purified nucleotide by ion-pair reversed-phase HPLC: WT KRAS remained GDP loaded, as did WT ARF1
ARL10 [2]
  co-purified nucleotide by ion-pair reversed-phase HPLC: WT ARL10 co-precipitated with both GDP and GTP
ARL11; read-out: Kd
  Kd: 1730 nM
ARF1
  co-purified nucleotide by ion-pair reversed-phase HPLC: WT KRAS remained GDP loaded, as did WT ARF1

## Nc1nc2c(ncn2[C@@H]2O[C@H](COP(=O)(O)OP(=O)(O)OP(O)(O)=S)[C@@H](O)[C@H]2O)c(=O)[nH]1 [GTPγS]
ARL11
  Kd: 1.53 nM

## Nc1nc2c(ncn2[C@@H]2O[C@H](COP(=O)(O)OP(=O)(O)OP(=O)(O)O)[C@@H](O)[C@H]2O)c(=O)[nH]1 [GTP]
KRAS [3]
  % GTP: 59 % GTP
ARL10 [4]
  % GTP: 29 % GTP
